Source: patent publication US8664226B2, “Compound having 3-heteroarylpyrimidin-4-(3H)-one structure and pharmaceutical preparation containing same” (Kowa Company, Ltd., priority 2009, dated 2014)

Molecular target: T1, angiotensin II type 1 receptor (Oryctolagus cuniculus, UniProt P34976)
T1 construct: By using a specimen of isolated rabbit blood vessels; from tissue; host or cells: rabbit thoracic aorta ring (New Zealand White, male)
T1 sequence (P34976 1-359): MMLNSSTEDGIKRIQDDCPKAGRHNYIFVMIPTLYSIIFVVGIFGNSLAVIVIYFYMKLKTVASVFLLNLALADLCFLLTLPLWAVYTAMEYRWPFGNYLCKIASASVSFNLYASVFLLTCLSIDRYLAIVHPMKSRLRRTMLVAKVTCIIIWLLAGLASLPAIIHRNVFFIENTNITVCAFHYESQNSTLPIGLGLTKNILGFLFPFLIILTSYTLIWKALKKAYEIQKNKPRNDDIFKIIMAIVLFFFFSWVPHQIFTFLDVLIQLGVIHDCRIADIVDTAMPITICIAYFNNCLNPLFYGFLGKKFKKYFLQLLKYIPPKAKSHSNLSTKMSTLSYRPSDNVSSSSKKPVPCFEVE
Experiment: Angiotensin II antagonistic activity in isolated rabbit blood vessels
Settings: angiotensin II (10 nM)-induced contraction of rabbit thoracic aorta ring
Description: By using a specimen of isolated rabbit blood vessels, antagonistic activity of the compounds of the invention against angiotensin II type 1 receptor was estimated from a dose-response curve of angiotensin II-induced blood vessel contraction.
During the measurement, the inside temperature of the magnus bath was maintained at 37° C. and the bath was continuously ventilated with a sufficient amount of mixed gas (95% O2 and 5% CO2). The angiotensin II-induced contraction was converted into a relative value (%) that is based on the angiotensin II (10 nM)-induced contraction in the absence of the compounds of each example. From the concentration-response curve obtained therefrom, 50% inhibition concentration (IC50 value) was calculated by using SAS Preclinical Package Ver5.0 (trade name, manufactured by SAS institute Japan Co., Tokyo, Japan), which is a statistical analysis program.

Question: `CCCCc1nc(C)n(-c2ccccn2)c(=O)c1Cc1ccc(-c2ccccc2-c2nnn[nH]2)cc1` [Example 1, 5-{[2′-(1H-tetrazol-5-yl)biphenyl-4-yl]methyl}-6-butyl-2-methyl-3-(pyridin-2-yl)pyrimidin-4(3H)-one] was tested. Which IC50 did it give?
Answer: The IC50 was 2.1 nM.

Question: With `CCCCc1nc(C)n(-c2ncc(OCc3nc(-c4ccc5ccccc5c4)oc3C)cn2)c(=O)c1Cc1ccc(-c2ccccc2-c2nnn[nH]2)cc1` [Example 34, 5-{[2′-(1H-tetrazol-5-yl)biphenyl-4-yl]methyl}-6-butyl-2-methyl-3-{5-{[5-methyl-2-(naphthalen-2-yl)oxazol-4-yl]methoxy}pyrimidin-2-yl}-pyrimidin-4 (3H)-one] as the molecule, how does the IC50 read?
Answer: Its IC50 is 754 nM.

Question: `CCCCc1nc(C)n(-c2ncc(OC)cn2)c(=O)c1Cc1ccc(-c2ccccc2-c2nnn[nH]2)cc1` [Example 18, 5-{[2′-(1H-tetrazol-5-yl)biphenyl-4-yl]methyl}-6-butyl-3-(5-methoxypyrimidin-2-yl)-2-methylpyrimidin-4 (3H)-one] was tested. Which IC50 did it give?
Answer: The IC50 was 2.7 nM.

Question: Which IC50 does the source give for `CCCCc1nc(C)n(-c2ncc(O)cn2)c(=O)c1Cc1ccc(-c2ccccc2-c2nnn[nH]2)cc1` [Example 20, 5-{[2′-(1H-tetrazol-5-yl)biphenyl-4-yl]methyl}-6-butyl-3-(5-hydroxypyrimidin-2-yl)-2-methylpyrimidin-4 (3H)-one] here?
Answer: Its IC50 is 6.3 nM.

Question: `CCCCc1nc(C)n(-c2ncc(OC3CCC(=O)CC3)cn2)c(=O)c1Cc1ccc(-c2ccccc2-c2nnn[nH]2)cc1` [Example 29, 5-{[2′-(1H-tetrazol-5-yl)biphenyl-4-yl]methyl}-6-butyl-2-methyl-3-[5-(4-oxocyclohexyloxy)pyrimidin-2-yl]pyrimidin-4 (3H)-one] was tested. Which IC50 did it give?
Answer: Its IC50 is 7.7 nM.

Question: How did the IC50 turn out when `CCCCc1nc(C)n(-c2ncc(OCCc3nc(-c4ccccc4)oc3C)cn2)c(=O)c1Cc1ccc(-c2ccccc2-c2nnn[nH]2)cc1` [Example 35, 5-{[2′-(1H-tetrazol-5-yl)biphenyl-4-yl]methyl}-6-butyl-2-methyl-3-{5-[2-(5-methyl-2-phenyloxazol-4-yl)ethoxy]pyrimidin-2-yl}pyrimidin-4 (3H)-one] was run?
Answer: The IC50 was 347 nM.

Question: Which IC50 does the source give for `CCCCc1nc(C)n(-c2ncc(OCc3nc(-c4ccccc4)oc3C)cn2)c(=O)c1Cc1ccc(-c2ccccc2-c2nnn[nH]2)cc1` [Example 31] here?
Answer: The IC50 was 338 nM.

Question: `CCCCc1nc(C)n(-c2ncc(OC(Cc3ccccc3)C(=O)O)cn2)c(=O)c1Cc1ccc(-c2ccccc2-c2nnn[nH]2)cc1` (stereo not shown) [Example 43, 2-{2-{5-{[2′-(1H-tetrazol-5-yl)biphenyl-4-yl]methyl}-4-butyl-2-methyl-6-oxopyrimidin-1(6H)-yl}pyrimidin-5-yloxy}-3-phenylpropionic acid] was tested. Which IC50 did it give?
Answer: Its IC50 is 5.5 nM.

Question: How did the IC50 turn out when `CCCCc1nc(C)n(-c2ncc(OCc3nc(-c4ccc(Br)o4)oc3C)cn2)c(=O)c1Cc1ccc(-c2ccccc2-c2nnn[nH]2)cc1` [Example 32, 5-{[2′-(1H-tetrazol-5-yl)biphenyl-4-yl]methyl}-3-{5-{[2-(5-bromofuran-2-yl)-5-methyloxazol-4-yl]methoxy}pyrimidin-2-yl}-6-butyl-2-methylpyrimidin-4 (3H)-one] was run?
Answer: Its IC50 is 428 nM.

Question: Which IC50 does the source give for `CCCCc1nc(C)n(-c2ncc(OCCS(C)(=O)=O)cn2)c(=O)c1Cc1ccc(-c2ccccc2-c2nnn[nH]2)cc1` [Example 27, 5-{[2′-(1H-tetrazol-5-yl)biphenyl-4-yl]methyl}-6-butyl-2-methyl-3-{5-[2-(methylsulfonyl)ethoxy]pyrimidin-2-yl}pyrimidin-4 (3H)-one] here?
Answer: Its IC50 is 5 nM.

Question: `CCCCc1nc(C)n(-c2cnccn2)c(=O)c1Cc1ccc(-c2ccccc2-c2nnn[nH]2)cc1` [Example 60, 5-{[2′-(1H-tetrazol-5-yl)biphenyl-4-yl]methyl}-6-butyl-2-methyl-3-(pyrazin-2-yl)pyrimidin-4 (3H)-one] was tested. Which IC50 did it give?
Answer: Its IC50 is 8.1 nM.

Question: How did the IC50 turn out when `CCCCc1nc(C)n(-c2ncc(OCC(=O)N(CC)CC)cn2)c(=O)c1Cc1ccc(-c2ccccc2-c2nnn[nH]2)cc1` [Example 41, 2-{2-{5-{[2′-(1H-tetrazol-5-yl)biphenyl-4-yl]methyl}-4-butyl-2-methyl-6-oxopyrimidin-1(6H)-yl}pyrimidin-5-yloxy}-N,N-diethylacetamide] was run?
Answer: The IC50 was 8.7 nM.

Question: `CCCCc1nc(C)n(-c2ncc(OCC(=O)NCC)cn2)c(=O)c1Cc1ccc(-c2ccccc2-c2nnn[nH]2)cc1` [Example 40, 2-{2-{5-{[2′-(1H-tetrazol-5-yl)biphenyl-4-yl]methyl}-4-butyl-2-methyl-6-oxopyrimidin-1(6H)-yl}pyrimidin-5-yloxy}-N-ethylacetamide] was tested. Which IC50 did it give?
Answer: The IC50 was 5.9 nM.

Question: `CCCCc1nc(C)n(-c2ncc(OCCCCC(N)=O)cn2)c(=O)c1Cc1ccc(-c2ccccc2-c2nnn[nH]2)cc1` [Example 53, 5-{2-{5-{[2′-(1H-tetrazol-5-yl)biphenyl-4-yl]methyl}-4-butyl-2-methyl-6-oxopyrimidin-1(6H)-yl}pyrimidin-5-yloxy}pentanamide] was tested. Which IC50 did it give?
Answer: Its IC50 is 8.5 nM.

Question: How did the IC50 turn out when `CCCCc1nc(C)n(-c2ncc(OCCCC(=O)NCCC)cn2)c(=O)c1Cc1ccc(-c2ccccc2-c2nnn[nH]2)cc1` [Example 50, 4-{2-{5-{[2′-(1H-tetrazol-5-yl)biphenyl-4-yl]methyl}-4-butyl-2-methyl-6-oxopyrimidin-1(6H)-yl}pyrimidin-5-yloxy}-N-propylbutanamide] was run?
Answer: The IC50 was 14 nM.

Question: With `CCCCc1nc(C)n(-c2ncc(OCCCO)cn2)c(=O)c1Cc1ccc(-c2ccccc2-c2nnn[nH]2)cc1` [Example 25, 5-{[2′-(1H-tetrazol-5-yl)biphenyl-4-yl]methyl}-6-butyl-3-[5-(3-hydroxypropoxy)pyrimidin-2-yl]-2-methylpyrimidin-4 (3H)-one] as the molecule, how does the IC50 read?
Answer: Its IC50 is 24 nM.

Question: `CCCCc1nc(C)n(-c2ncc(OCCCC(=O)OCC)cn2)c(=O)c1Cc1ccc(-c2ccccc2-c2nnn[nH]2)cc1` [Example 45, ethyl 4-{2-{5-{[2′-(1H-tetrazol-5-yl)biphenyl-4-yl]methyl}-4-butyl-2-methyl-6-oxopyrimidin-1(6H)-yl}pyrimidin-5-yloxy}butanoate] was tested. Which IC50 did it give?
Answer: The IC50 was 242 nM.

Question: With `CCCCc1nc(C)n(-c2ncc(OCCCCC(=O)NCC)cn2)c(=O)c1Cc1ccc(-c2ccccc2-c2nnn[nH]2)cc1` [Example 54, 5-{2-{5-{[2′-(1H-tetrazol-5-yl)biphenyl-4-yl]methyl}-4-butyl-2-methyl-6-oxopyrimidin-1(6H)-yl}pyrimidin-5-yloxy}-N-ethylpentanamide] as the molecule, how does the IC50 read?
Answer: The IC50 was 25 nM.

Question: For `CCCCc1nc(C)n(-c2ncc(OCCCC(=O)NC(C)C)cn2)c(=O)c1Cc1ccc(-c2ccccc2-c2nnn[nH]2)cc1` [Example 51, 4-{2-{5-{[2′-(1H-tetrazol-5-yl)biphenyl-4-yl]methyl}-4-butyl-2-methyl-6-oxopyrimidin-1(6H)-yl}pyrimidin-5-yloxy}-N-isopropylbutanamide], which IC50 is on record?
Answer: Its IC50 is 5.8 nM.

Question: With `CCCCc1nc(C)n(-c2nc(Cl)cc(Cl)n2)c(=O)c1Cc1ccc(-c2ccccc2-c2nnn[nH]2)cc1` [Example 30, 5-{[2′-(1H-tetrazol-5-yl)biphenyl-4-yl]methyl}-6-butyl-3-(4,6-dichloropyrimidin-2-yl)-2-methylpyrimidin-4 (3H)-one] as the molecule, how does the IC50 read?
Answer: Its IC50 is 20 nM.

Question: Which IC50 does the source give for `CCCCc1nc(C)n(-c2ncccn2)c(=O)c1Cc1ccc(-c2ccccc2-c2nnn[nH]2)cc1` [Example 17, 5-{[2′-(1H-tetrazol-5-yl)biphenyl-4-yl]methyl}-6-butyl-2-methyl-3-(pyrimidin-2-yl)pyrimidin-4 (3H)-one] here?
Answer: The IC50 was 9.2 nM.

Question: With `CCCCc1nc(C)n(-c2cccc(C(F)(F)F)n2)c(=O)c1Cc1ccc(-c2ccccc2-c2nnn[nH]2)cc1` [Example 12, 5-{[2′-(1H-tetrazol-5-yl)biphenyl-4-yl]methyl}-6-butyl-2-methyl-3-[6-(trifluoromethyl)pyridin-2-yl]pyrimidin-4(3H)-one] as the molecule, how does the IC50 read?
Answer: The IC50 was 230 nM.
